Reference: patent US8936808B1, “Opioid agonist/opioid antagonist/acetaminophen combinations” (Purdue Pharma L.P., priority 1997, dated 2015)
Entries after “also recorded” stand apart in the source; their conditions may differ. Where two headings read alike, the source gives them in different places.

Key:
[1] = format: in vivo
Excerpt: In certain other preferred embodiments, the opioid included in the dosage form is a different orally active opioid agonist than hydrocodone. […] Equianalgesic dosages of various opioid analgesics are provided below, and are otherwise known to those skilled in the art, e.g, from Foley, K. “The Treatment of Cancer Pain;” N. Engl.
In certain preferred embodiments, the opioid agonist is hydrocodone. Equianalgesic doses of the remaining opioids mentioned herein (and others) are known to those skilled in the art.

[2] = system: precipitated withdrawal / subjective effects of hydrocodone; test: Example 3: precipitated withdrawal in morphine dependent volunteers receiving hydrocodone 30 mg and naltrexone oral solution; format: in vivo, human
[3] = system: opioid agonist properties of hydrocodone; test: Example 1: naltrexone antagonism of hydrocodone 15 mg (VAS drug effect, pupillometry), four-way crossover study
Description: All treatments were administered under fasted conditions. […] Subjects were randomly assigned to four treatment sequences of the four treatment groups. […] Safety measurements consisted of reports of adverse events, vital signs, abnormal laboratory values, abnormal physical examination and ECG results. Pharmacodynamic parameters (pupil size and Modified Specific Drug Effect Questionnaire) were also assessed.
Pupil Size—Measured by Pupillometry.
The camera was centered in front of the subject's face with 3 inch frame against the lateral orbital rims and the eyes occupying the very top of the field (to minimize upgaze). The subject was asked to look just over the camera body and to fixate on a non-accommodative target in the distance, thereby minimizing the near reflex. With the volunteer fixing in the distance, the photo was taken. All photographs were taken in constant ambient light. The pupillary latency was such that the flash will not affect pupillary diameter. […] Development of the print for the recommended length of time (approximately one (1) minute, varying with ambient temperature) will produce a one-to-one photograph of the volunteer's midface, with the pupils at the top of the print. Horizontal pupillary diameter is then measured using a simple plus magnifier with a built-in reticule calibrated to 0.1 millimeter. Only the left eye was used to measure pupillary effects at each time period specified in the protocol. • b. A Modified Specific Drug Effect Questionnaire. […] The present questionnaire consisted of 10 items rated by the subject 10 minutes prior to blood sampling. The item is related to signs of opiate agonist drugs and was as follows: Subject questions: 1) do you feel any effects from the drugs?, 2) does your skin feel itchy?, 3) do you feel relaxed?, 4) do you feel sleepy?, 5) do you feel drunk?, 6) do you feel nervous?, 7) do you feel full of energy?, 8) do you feel you need to talk?, 9) do you feel sick to your stomach?, 10) do you feel dizzy? The subject then rated the item by placing a vertical mark along a 100 mm visual analog scale (VAS) anchored on one end by “not at all” and at the other end by “an awful lot”.

[4] = cited from earlier work
[5] = cited from earlier work; remark: listed apart in the source
[6] = cited from earlier work; remark: listed apart in the source
[7] = system: effects of morphine-like opioid agonist / heroin; settings: cited from earlier work
[8] = system: mu over delta sites; settings: cited from earlier work
[9] = system: opioid agonist effects of hydrocodone; test: Example 2: ratio of oral naltrexone to oral hydrocodone, ten-period crossover (VAS drug effect, pupil diameter); format: in vivo, human
Description: All treatments were administered under fasted conditions. […] Subjects were randomly assigned to ten treatment sequences of the ten treatment groups.
The fast continued for an additional four (4) hours post-dose.
All samples were collected within ±2 minute of the scheduled time.

[10] = in comparison to a 15 mg dose of hydrocodone
[11] = 6.4-mg naltrexone dose, hydrocodone 15 mg
[12] = 15 mg hydrocodone (HYIR/APAP) with increasing doses of naltrexone, range 0 mg-12.8 mg

With `COc1ccc2c3c1O[C@H]1[C@@H](O)C=C[C@H]4[C@@H](C2)N(C)CC[C@@]341` [Codeine] the “Equianalgesic Doses of Opioids, Calculated Dose” value [1, 10] was 90.0 mg.

In the case of `COc1ccc2c3c1OC1C(=O)CC[C@H]4[C@@H](C2)N(C)CC[C@]314` (stereo partly drawn) [Hydrocodone, 4,5-epoxy-3-methoxy-17-methylmorphinan-6-one], the “Equianalgesic Doses of Opioids, Calculated Dose” value [1, 10] is reported as 15.0 mg, the onset of effect ([2]; in combination with naltrexone) is reported as under 0.5 h and the pupillary constriction ([3]; hydrocodone 15 mg plus naltrexone placebo) is reported as “most pupillary constriction”. For the same compound, the “relative analgesic potency versus oral morphine” value ([4]; in vivo, po) was “about two times”.

In the case of `CN1CC[C@]23CCCC[C@H]2[C@H]1Cc1ccc(O)cc13` [Levorphanol], the “Equianalgesic Doses of Opioids, Calculated Dose” value [1, 10] is reported as 1.8 mg.

For `CCC(=O)C(CC(C)N(C)C)(c1ccccc1)c1ccccc1` (stereo not drawn) [Methadone], the “Equianalgesic Doses of Opioids, Calculated Dose” value [1, 10] was 9.0 mg.

With `CN1CC[C@]23c4c5ccc(O)c4O[C@H]2[C@@H](O)C=C[C@H]3[C@H]1C5` [Morphine] the “Equianalgesic Doses of Opioids, Calculated Dose” value ([1]; in vivo) was 27.0 mg.

In the case of `COc1ccc2c3c1O[C@H]1C(=O)CC[C@@]4(O)[C@@H](C2)N(C)CC[C@]314` [Oxycodone], the “Equianalgesic Doses of Opioids, Calculated Dose” value [1, 10] is reported as 13.5 mg.

In the case of `CC(=O)Nc1ccc(O)cc1` [acetaminophen], the “solubility in water” value [5] is listed as “only poorly soluble in water”.

For `C[C@H]1[C@H]2Cc3ccc(O)cc3[C@]1(C)CCN2CC1CC1` [cyclazocine], the “duration of action after oral doses” value [6] is listed as about 24 h.

In the case of `CN1CC[C@]23c4c5ccc(O)c4O[C@H]2[C@@H](O)C=C[C@H]3[C@H]1C5.O=S(=O)(O)O` [morphine sulphate], the “oral hydrocodone dose equivalent to 15 mg i.m.” value ([4]; 15 mg i.m.) is given as 30 mg.

For `C=CCN1CC[C@]23c4c5ccc(O)c4O[C@H]2C(=O)CC[C@@]3(O)[C@H]1C5` [naloxone], the “block of the effect of 25 mg of heroin” value ([7]; 1 mg intravenously) is listed as “completely block” and the “effect on morphine-like opioid agonist effects” value ([7]; 0.4-0.8 mg intramuscularly or intravenously in man) is listed as “prevent or promptly reverse”.

In the case of `O=C1CC[C@@]2(O)[C@H]3Cc4ccc(O)c5c4[C@@]2(CCN3CC2CC2)[C@H]1O5` [naltrexone], the “effect on opioid agonist effects of 25 mg intravenous heroin challenge” value ([7]; 50 mg given 24 hours prior to challenge) is given as “completely blocked or attenuated”, the “blocking action, receptor preference” value [8] is given as “strong preferential blocking action against mu over delta sites” and the “precipitated withdrawal (abstinence)” value ([2]; naltrexone 1 and 2 mg with hydrocodone 30 mg, first protocol) is given as “slight abstinence”. For the same compound, the “subjective experience of hydrocodone on addition of naltrexone” value ([2]; physically dependent subjects, hydrocodone 30 mg) was “decreased the favorable subjective experience of hydrocodone”, the “block of the opioid effect (VAS drug effect) of hydrocodone” value [3, 11] was “not completely blocked” and the “block of the pupillary constriction of hydrocodone” value [3, 11] was “not completely blocked”. The “antagonism of hydrocodone-induced pupillary constriction, relation to dose” value ([3]; naltrexone 3.2 and 6.4 mg with hydrocodone 15 mg, FIG. 2) was “dose-response effect”, the “antagonism of hydrocodone-induced VAS drug effect, relation to dose” value ([3]; naltrexone oral solution 3.2 and 6.4 mg with hydrocodone 15 mg, FIG. 1) was “dose-response effect” and the “drug effect VAS score” value [9, 12] was “overall decrease”. The “pupillary constriction / pupil diameter” value [9, 12] was “decrease in pupillary constriction; also recorded: increase in pupil diameter”, the “antagonism of the 15 mg hydrocodone dose” value ([9]; approximately 0.4 mg naltrexone) was “minimally antagonized” and the “effect of the hydrocodone dose” value ([9]; naltrexone dosages above 0.4 mg) was “increasing diminution”.

For Meperidine, the “Equianalgesic Doses of Opioids, Calculated Dose” value [1, 10] was 135.0 mg.
